Article PMC5819902, “Activation loop targeting strategy for design of receptor-interacting protein kinase 2 (RIPK2) inhibitors” (Bioorganic & Medicinal Chemistry Letters, 2018)
Blank lines part the entries; values can stand above or below the compound they belong to.

Columns and labels:
Assay type in all cases: biochemical
[1] = biological target: T1, receptor-interacting protein kinase 2 (RIPK2) (Homo sapiens, UniProt O43353); experiment: in vitro enzyme inhibition, % inhibition at […]; conditions: 0.5 µM
[2] = biological target: T2, R171C RIPK2 (Homo sapiens, UniProt O43353, R171C); experiment: in vitro enzyme inhibition, % inhibition at […]; conditions: 5 µM
[3] = biological target: T1, receptor-interacting protein kinase 2 (RIPK2); experiment: in vitro enzyme inhibition, % inhibition at […]; conditions: 5 µM
[4] = biological target: T1, receptor-interacting protein kinase 2 (RIPK2); experiment: in vitro RIPK2 enzyme inhibition
[5] = biological target: T2, R171C RIPK2; experiment: in vitro RIPK2 enzyme inhibition
[6] = biological target: T1, receptor-interacting protein kinase 2 (RIPK2); experiment: X-ray co-crystal structure ([…] Å); in vitro enzyme inhibition IC50
[7] = biological target: T1, receptor-interacting protein kinase 2 (RIPK2); experiment: in vitro enzyme inhibition, % inhibition at […]; conditions: 1 µM
[8] = biological target: T2, R171C RIPK2; experiment: in vitro enzyme inhibition, % inhibition at […]; conditions: 1 µM

T2 sequence (O43353 whole entry R171C): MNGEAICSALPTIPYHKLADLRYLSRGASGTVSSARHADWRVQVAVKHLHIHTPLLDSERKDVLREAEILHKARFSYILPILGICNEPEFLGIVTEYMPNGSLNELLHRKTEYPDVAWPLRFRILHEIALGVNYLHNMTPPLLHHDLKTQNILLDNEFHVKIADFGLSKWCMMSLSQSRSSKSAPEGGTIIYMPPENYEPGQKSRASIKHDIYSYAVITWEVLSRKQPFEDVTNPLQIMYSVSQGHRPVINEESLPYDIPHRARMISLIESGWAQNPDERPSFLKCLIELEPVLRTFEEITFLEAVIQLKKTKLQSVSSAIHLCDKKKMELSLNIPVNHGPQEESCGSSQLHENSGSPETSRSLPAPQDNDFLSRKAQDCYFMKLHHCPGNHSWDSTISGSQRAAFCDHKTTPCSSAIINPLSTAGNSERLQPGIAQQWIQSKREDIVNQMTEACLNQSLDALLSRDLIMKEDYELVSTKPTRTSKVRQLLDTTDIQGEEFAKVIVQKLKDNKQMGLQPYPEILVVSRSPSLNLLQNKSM
T1 sequence (O43353 whole entry): as the sequence (O43353 whole entry R171C) above, with C171R counted along it

- % Inhibition / RIPK2 WT [3]: 69
- % Inhibition / R171C RIPK2 [2]: 76
Compound: CNC(=O)c1cc(Oc2ccc(NC(=O)Nc3cccc(CC(=O)OC)c3)c(F)c2)ccn1 [CSR30]

- IC50 [5]: 4.87 ± 0.96 µM
- IC50 [6]: 2.26 ± 0.11 µM
Compound: CNC(=O)c1cc(Oc2ccc(NC(=O)Nc3ccc(SCC(=O)O)c(F)c3)c(F)c2)ccn1 [CSR35]

- % Inhibition / RIPK2 WT [7]: 94
- % Inhibition / R171C RIPK2 [8]: 92
Compound: CNC(=O)c1cc(Oc2ccc(NC(=O)Nc3ccc(SCC(=O)OC)c(F)c3)c(F)c2)ccn1 [CSR36]

Second part, the compound before the results:

Compound: CNC(=O)c1cc(Oc2ccc(NC(=O)Nc3cccc(CC#N)c3)c(F)c2)ccn1 [CSR25]
- % Inhibition / RIPK2 WT [1]: 43

Compound: CNC(=O)c1cc(Oc2ccc(NC(=O)Nc3cccc(C(C)(C)C(=O)O)c3)c(F)c2)ccn1 [CSR29]
- % Inhibition / R171C RIPK2 [2]: 67

Compound: O=C(O)CSc1ccc(NC(=O)Nc2ccccc2F)cc1F [CSR35F2]
- IC50 [4]: 13.2 ± 1.7 µM
